Data as given in PMC8198049, “Synthesis and Evaluation of the Tetracyclic Ring-System of Isocryptolepine and Regioisomers for Antimalarial, Antiproliferative and Antimicrobial Activities” (Molecules, 2021).
Values after ≈ are worked out from the molar mass of the structure shown.

Legend:
[1] = test system: Streptococcus agalactiae (ATCC 12386); experiment: Bacterial growth inhibition assay; format: cell-based; design: MIC (Gentamycin, unit not given): unit not given beside the values; conditions: for MIC: ATCC12386
Method: (§1) The prepared samples were tested for in vitro antimicrobial activity against E. faecalis, E. coli, P. aeruginosa, S. aureus, Streptococcus agalactiae and S. epidermis using gentamycin as a reference compound.
(§2) To determine and quantify antimicrobial activity, a bacteria growth inhibition assay in liquid media was executed. Compounds 2–3, 4, 8–10, 13–14, 16, 18, and 20 were tested against Staphylococcus aureus (ATCC 25923), Escherichia coli (ATCC 259233), Enterococcus faecialis (ATCC 29122), Pseudomonas aeruginosa (ATCC 27853) and Streptococcus agalactiae (ATCC 12386); all strains from LGC Standards (Teddington, UK). S. aureus, E. coli, and P. aeruginosa were grown in Muller Hinton broth (275730, Becton, Franklin Lakes, NJ, USA). E. faecalis and S. agalactiae were cultured in brain hearth infusion broth (53286, Sigma, St Louise, MO, USA). Fresh bacterial colonies were transferred in the respective medium and incubated at 37 °C overnight. The bacterial cultures were diluted to a culture density representing the log phase and µL/well were pipetted into a 96-well microtiter plate (734–2097, NunclonTM, Thermo Scientific, Waltham, MA, USA). The final cell density was 1500–15.000 colony forming units/well. The compound was diluted in 2% (v/v) DMSO in ddH2O, providing a final assay concentration of 50% of the prepared sample, since 50 µL of sample in DMSO/water were added to 50 µL bacterial culture. After adding the samples to the plates, they were incubated overnight at 37 °C and the growth was determined by measuring the optical density at λ = 600 nm (OD600) with a 1420 Multilabel Counter VICTOR3TM (Perkin Elmer, Waltham, MA, USA). A water sample was used as a reference control, growth medium without bacteria was used as a negative control and dilution series of gentamycin (A2712, Merck, Darmstadt, DE) from 32 to 0.01 µg/mL was used as positive control and visually inspected for bacterial growth. The positive control was used as a system suitability test and the results of the antimicrobial assay were only considered valid when positive control was passed. The final concentration of DMSO in the assays was ≤2% (v/v) and was known to have no effect in the tested bacteria. The data was processed using GraphPad Prism 8.

[2] = test system: MDA-MB-231 (human breast adenocarcinoma); experiment: Antiproliferative assay (resazurin); format: cell-based; conditions: for IC50: Homo sapiens, MDA-MB-231, 72 h compound incubation, mean ± sem, two separate experiments
Method: (§3) Compounds tested in the antiproliferative assays were tested in 11 dilution points (0.02 µM–40 µM or 0.04 µM–80 µM). […] HCT116 cells were maintained in McCoy’s 5A media (Life Technologies, CA, USA), MDA-MB-231 cells were cultured in DMEM media (Life Technologies) with 10 mM HEPES (Life Technologies), whilst PC-3 cells were maintained in RPMI media (Life Technologies). All media were supplemented with 10% heat-inactivated fetal bovine serum (Australian source; Corning, CA, USA) and all cells were incubated at 37 °C in a humidified incubator with 5% CO2. Cells were seeded in 384-well plates (Greiner Bio-One, NC, USA) using the respective complete media. After 24 h cell seeding, compounds were added and antiproliferative activity was determined using the resazurin assay after 72 h compound incubation. Briefly, cells were incubated with 60 µM resazurin (Cayman, MI, USA) for 6 h at 37 °C and fluorescence signals were measured using a microplate reader (EnSight, PerkinElmer, Waltham, MA, USA).

[3] = test system: HCT116 (human colon cancer); experiment: Antiproliferative assay (resazurin); format: cell-based; conditions: for IC50: Homo sapiens, HCT-116, 72 h compound incubation, mean ± sem, two separate experiments
Method: as §3

[4] = test system: PC-3 (human prostate cancer); experiment: Antiproliferative assay (resazurin); format: cell-based; conditions: for IC50: Homo sapiens, 72 h compound incubation, mean ± sem, two separate experiments
Method: as §3

[5] = test system: Plasmodium falciparum 3D7 strain; experiment: Antiplasmodial imaging assay; format: cell-based; conditions: P. falciparum 3D7, 72 h, mean ± standard deviation, two separate experiments; for IC50: Plasmodium falciparum
Method: (§4) Compounds tested in the antiproliferative assays were tested in 11 dilution points (0.02 µM–40 µM or 0.04 µM–80 µM).
(§5) Antiplasmodial activity was determined as previously described by Duffy and Avery. […] After incubation, plates were stained with 4’,6-diamidino-2-phenylindole (DAPI) in a permeabilization buffer for 5 h at rt in the dark. Plates were imaged on the Opera confocal microplate image reader (PerkinElmer).

[6] = Antiplasmodial imaging assay; format: cell-based, Plasmodium falciparum; conditions: human (HEK293) and Plasmodium falciparum (3D7), HEK293 cells versus Plasmodium falciparum 3D7 culture; HEK293 vs 3D7; read-out: SI (selectivity index = cytotoxicity in HEK293/activity in 3D7)
Method: as §4, §5

[7] = Cytotoxicity assay (resazurin-based viability); format: cell-based; conditions: human, HEK293 cells, mean ± standard deviation, two separate experiments
Method: Fluorescence was measured using an EnSight plate reader (PerkinElmer, Waltham, MA, USA).

E. faecalis (ATCC 29122) = experiment: Bacterial growth inhibition assay; format: cell-based, Enterococcus faecialis; design: MIC (Gentamycin, unit not given): unit not given beside the values; conditions: for MIC: Enterococcus faecalis, ATCC29122
Method: as §1, §2

S. aureus (ATCC 25923) = experiment: Bacterial growth inhibition assay; format: cell-based, Staphylococcus aureus; design: MIC (Gentamycin, unit not given): unit not given beside the values; conditions: for MIC: Staphylococcus aureus, ATCC25923
Method: as §1, §2

E. coli (ATCC 259233) = experiment: Bacterial growth inhibition assay; format: cell-based, Escherichia coli; design: MIC (Gentamycin, unit not given): unit not given beside the values; conditions: reference compound
Method: as §1
as §2, with “The final concentration of DMSO in the assays was ≤2% (v/v) and was known to have no effect in the tested bacteria. The data was processed using GraphPad Prism 8.” left out

[8] = test system: P. aeruginosa (ATCC 27853); experiment: Bacterial growth inhibition assay; format: cell-based, Pseudomonas aeruginosa; design: unit not given beside the values; conditions: reference compound
Method: as §1
(§6) To determine and quantify antimicrobial activity, a bacteria growth inhibition assay in liquid media was executed. Compounds 2–3, 4, 8–10, 13–14, 16, 18, and 20 were tested against Staphylococcus aureus (ATCC 25923), Escherichia coli (ATCC 259233), Enterococcus faecialis (ATCC 29122), Pseudomonas aeruginosa (ATCC 27853) and Streptococcus agalactiae (ATCC 12386); all strains from LGC Standards (Teddington, UK). S. aureus, E. coli, and P. aeruginosa were grown in Muller Hinton broth (275730, Becton, Franklin Lakes, NJ, USA). E. faecalis and S. agalactiae were cultured in brain hearth infusion broth (53286, Sigma, St Louise, MO, USA). Fresh bacterial colonies were transferred in the respective medium and incubated at 37 °C overnight. The bacterial cultures were diluted to a culture density representing the log phase and µL/well were pipetted into a 96-well microtiter plate (734–2097, NunclonTM, Thermo Scientific, Waltham, MA, USA). […] After adding the samples to the plates, they were incubated overnight at 37 °C and the growth was determined by measuring the optical density at λ = 600 nm (OD600) with a 1420 Multilabel Counter VICTOR3TM (Perkin Elmer, Waltham, MA, USA). […]

[9] = test system: S. epidermis (ATCC 35984); experiment: Biofilm formation inhibition assay; format: cell-based, Staphylococcus epidermidis; conditions: inhibition of biofilm formation
Method: as §1
For testing the inhibition of biofilm formation, the biofilm-producing Staphylococcus epidermidis (ATCC 35984) was grown in Tryptic Soy Broth (TSB, 105459, Merck, Kenilworth, NJ, USA) overnight at 37 °C. The overnight culture was diluted in fresh medium with 1% glucose (D9434, Sigma) before being transferred to a 96-well microtiter plate; 50 µL/well were incubated overnight with 50 µL of the test compound dissolved in 2% (v/v) DMSO aq. added in duplicates. The bacterial culture was removed from the plate and the plate was washed with tap water. The biofilm was fixed at 65 °C for 1 h before 70 µL 0.1% crystal violet (115940, Millipore, Burlington, MA, USA) was added to the wells for 10 min of incubation and 70 µL of 70% ethanol was then added to each well and the plate incubated on a shaker for 5–10 min. Biofilm formation inhibition was assessed by the presence of violet color and measured at […] absorbance using a 1420 Multilabel Counter VICTOR3TM; 50 µL of a non-biofilm forming Staphylococcus haemolyticus (clinical isolate 8-7A, University Hospital of North Norway Tromsø, Norway) mixed in 50 µL autoclaved Milli-Q water was used as a control; 50 µL S. epidermidis mixed in 50 µL autoclaved Milli-Q water was used as the control for biofilm formation; and 50 µL TSB with 50 µL autoclaved Milli-Q water was used as a medium blank control.

[10] = test system: E. faecalis, E. coli, P. aeruginosa, S. aureus, Streptococcus agalactiae and S. epidermis; experiment: Antimicrobial and biofilm inhibition assays, whole panel of tested strains; format: cell-based; conditions: five bacterial strains and biofilm formation; tested up to 100 µM
Method: as §1, §6

[11] = test system: HCT116, MDA-MB-231 and PC-3; experiment: Antiproliferative assay, whole panel of cancer cell lines; format: cell-based, human
Method: as §3

Compound | IC50 [2] | IC50 [3] | IC50 [5] | selectivity ratio at 72 h [6] | IC50 at 72 h [7] | IC50 [4] | further results
Cn1c2nc3ccccc3c-2cc2ccccc21 [Neocryptolepine (2), Neocryptolepine] | 10400 nM | 6220 ± 90 nM | 7249 ± 6 nM | > 2.8 | > 20 µM |  | MIC [1]: 100 µM (≈ 23.2 µg/mL); % at 80 µM (PC-3) ([4]; PC-3, 80 µM): 27% at 80 µM
c1ccc2c(c1)Nc1ccnc3cccc-2c13 [Compound 4a, 7H-pyrido[4,3,2-gh]phenanthridine] | 594 ± 140 nM | 721 ± 27 nM | 548 ± 3 nM | 5.2 | 2.83 ± 0.092 µM | 1.63 ± 0.173 µM | MIC (E. faecalis (ATCC 29122)): 100 µM (≈ 21.8 µg/mL); MIC (S. aureus (ATCC 25923)): 100 µM (≈ 21.8 µg/mL)
CN1C=Cc2nc3ccccc3c3cccc1c23 [Compound 8a, 4-Methyl-4H-pyrido[4,3,2-gh]phenanthridine] | 360 ± 51 nM | 444 ± 52 nM | 1698 ± 5 nM | 4.4 | 7.41 ± 0.207 µM | 2.57 ± 0.114 µM | melting point: 182 to 183 °C; MIC (E. faecalis (ATCC 29122)): 75 µM (≈ 17.4 µg/mL); MIC (S. aureus (ATCC 25923)): 75 µM (≈ 17.4 µg/mL)
gentamycin [reference compound] |  |  |  |  |  |  | MIC (Gentamycin, unit not given) (E. coli (ATCC 259233)): 0.13; MIC (Gentamycin, unit not given) ([1]; reference compound): 4; MIC (Gentamycin, unit not given) [8]: 0.25; MIC (Gentamycin, unit not given) (E. faecalis (ATCC 29122); reference compound): 8; MIC (Gentamycin, unit not given) (S. aureus (ATCC 25923); reference compound): 0.06
c1ccc2c(c1)[nH]c1ccc3ncccc3c12 [Compound 9a, 7H-Pyrido[2,3-c]carbazole] | 21500 nM | 20000 nM | 6825 ± 61 nM | > 11.7 | > 80 µM | 17.8 µM | MBIC [9]: 100 µM; MIC [1]: 100 µM (≈ 21.8 µg/mL); melting point: 204 to 205 °C; 3D7 IC50 [5]: little to no activity
COC1=CN(C)c2cccc3c2c1nc1ccccc13 [Compound 8b, 6-Methoxy-4-methyl-4H-pyrido[4,3,2-gh]phenanthridine] | 814 ± 162 nM | 871 ± 172 nM | 1550 ± 27 nM | 3.3 | 5.057 ± 0.045 µM | 4.54 ± 0.361 µM | activity against any of the tested strains [10]: complete loss of activity
C[n+]1cccc2c3c(ccc21)[nH]c1ccccc13 [Compound 10, 4-Methyl-7H-pyrido[2,3-c]carbazolium Iodide] |  |  | 128 ± 2 nM | 214 |  |  | activity against the panel of cancer cell lines [11]: no activity; % at 40 µM (printed in MDA-MB-231 IC50 column) ([2]; MDA-MB-231, 40 µM): 24% at 40 µM; % at 40 µM (printed in HCT116 IC50 column) ([3]; HCT116, 40 µM): 38% at 40 µM; % at 40 µM (PC-3) ([4]; PC-3, 40 µM): 36% at 40 µM
